Experimental data as given in ChEMBL document CHEMBL1201862, “PubChem BioAssay data set” (2004).
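Where inhibition never reached the appropriate level, the endpoint shown equals the highest concentration tested. Otherwise, values were interpolated linearly from a five-concentration, 48-hour dose response in 96-well plates. GI50 = concentration required for 50% inhibition of growth.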 Activity calls are given as the source filed them. Rule as the data show it: active = GI50 up to about 1.1 µM and inactive = higher.

Assays:
Experiment in all cases: inhibition of tumour cell growth, NCI panel, 48 h
A549 = test system: A549
SF-295 = test system: SF-295
MDA-N = test system: MDA-N
NCI-H522 = test system: NCI-H522
SK-MEL-28 = test system: SK-MEL-28
LOX IMVI = test system: LOX IMVI
A498 = test system: A498
SNB-75 = test system: SNB-75
SF-539 = test system: SF-539
U-251 = test system: U-251
MOLT-4 = test system: MOLT-4
SK-MEL-5 = test system: SK-MEL-5
COLO 205 = test system: COLO 205
CCRF-CEM = test system: CCRF-CEM
UACC-257 = test system: UACC-257
UO-31 = test system: UO-31
Hs-578T = test system: Hs-578T
PC-3 = test system: PC-3
MDA-MB-231 = test system: MDA-MB-231
MDA-MB-435 = test system: MDA-MB-435
NCI-H460 = test system: NCI-H460
IGROV-1 = test system: IGROV-1
Malme-3M = test system: Malme-3M
SW-620 = test system: SW-620
BT-549 = test system: BT-549
NCI/ADR-RES = test system: NCI/ADR-RES
RXF 393 = test system: RXF 393
HCT-15 = test system: HCT-15
SK-MEL-2 = test system: SK-MEL-2
NCI-H226 = test system: NCI-H226
M14 = test system: M14
SK-OV-3 = test system: SK-OV-3
UACC-62 = test system: UACC-62
786-0 = test system: 786-0
SF-268 = test system: SF-268
EKVX = test system: EKVX
T47D = test system: T47D
HL-60 = test system: HL-60
RPMI-8226 = test system: RPMI-8226
OVCAR-3 = test system: OVCAR-3
OVCAR-8 = test system: OVCAR-8
K562 = test system: K562
HOP-92 = test system: HOP-92
HCC 2998 = test system: HCC 2998
OVCAR-4 = test system: OVCAR-4
OVCAR-5 = test system: OVCAR-5
SR = test system: SR
DU-145 = test system: DU-145
CAKI-1 = test system: CAKI-1
SNB-19 = test system: SNB-19
KM12 = test system: KM12
HCT-116 = test system: HCT-116
MCF7 = test system: MCF7
NCI-H23 = test system: NCI-H23
ACHN = test system: ACHN
HOP-62 = test system: HOP-62
SN12C = test system: SN12C
TK-10 = test system: TK-10
HT-29 = test system: HT-29

In the case of `CC(=O)NNc1nc(C)c(C(/C=C/c2ccccc2O)=N/N=C(N)N)s1`, the GI50 (A549) is reported as > 100 µM (inactive), the GI50 (SF-295) is reported as > 100 µM (inactive) and the GI50 (MDA-N) is reported as > 100 µM (inactive). The GI50 (NCI-H522) was > 100 µM (inactive), the GI50 (SK-MEL-28) was > 100 µM (inactive) and the GI50 (LOX IMVI) was > 100 µM (inactive). For the same compound, the GI50 (A498) was > 100 µM (inactive), the GI50 (SNB-75) was > 100 µM (inactive) and the GI50 (SF-539) was > 100 µM (inactive). The GI50 (U-251) was > 100 µM (inactive), the GI50 (MOLT-4) was > 100 µM (inactive) and the GI50 (SK-MEL-5) was > 100 µM (inactive). For the same compound, the GI50 (COLO 205) was > 100 µM (inactive), the GI50 (CCRF-CEM) was > 100 µM (inactive) and the GI50 (UACC-257) was > 100 µM (inactive). For the same compound, the GI50 (UO-31) was > 100 µM (inactive), the GI50 (Hs-578T) was > 100 µM (inactive) and the GI50 (PC-3) was > 100 µM (inactive). For the same compound, the GI50 (MDA-MB-231) was > 100 µM (inactive), the GI50 (MDA-MB-435) was > 100 µM (inactive) and the GI50 (NCI-H460) was > 100 µM (inactive). For the same compound, the GI50 (IGROV-1) was > 100 µM (inactive), the GI50 (Malme-3M) was > 100 µM (inactive) and the GI50 (SW-620) was > 100 µM (inactive). The GI50 (BT-549) was > 100 µM (inactive), the GI50 (NCI/ADR-RES) was > 100 µM (inactive) and the GI50 (RXF 393) was > 100 µM (inactive). For the same compound, the GI50 (HCT-15) was over 100 µM, the GI50 (SK-MEL-2) was > 100 µM (inactive) and the GI50 (NCI-H226) was > 100 µM (inactive). The GI50 (M14) was > 100 µM (inactive), the GI50 (SK-OV-3) was > 100 µM (inactive) and the GI50 (UACC-62) was > 100 µM (inactive). The GI50 (786-0) was > 100 µM (inactive), the GI50 (SF-268) was > 100 µM (inactive) and the GI50 (EKVX) was 93.8 µM (inactive). For the same compound, the GI50 (T47D) was > 100 µM (inactive), the GI50 (HL-60) was > 100 µM (inactive) and the GI50 (RPMI-8226) was > 100 µM (inactive). The GI50 (OVCAR-3) was > 100 µM (inactive), the GI50 (OVCAR-8) was > 100 µM (inactive) and the GI50 (K562) was > 100 µM (inactive). The GI50 (HOP-92) was > 100 µM (inactive), the GI50 (HCC 2998) was > 100 µM (inactive) and the GI50 (OVCAR-4) was > 100 µM (inactive). For the same compound, the GI50 (OVCAR-5) was > 100 µM (inactive), the GI50 (SR) was > 100 µM (inactive) and the GI50 (DU-145) was > 100 µM (inactive). For the same compound, the GI50 (CAKI-1) was > 100 µM (inactive), the GI50 (SNB-19) was > 100 µM (inactive) and the GI50 (KM12) was > 100 µM (inactive). For the same compound, the GI50 (HCT-116) was > 100 µM (inactive), the GI50 (MCF7) was > 100 µM (inactive) and the GI50 (NCI-H23) was > 100 µM (inactive). The GI50 (ACHN) was > 100 µM (inactive), the GI50 (HOP-62) was > 100 µM (inactive) and the GI50 (SN12C) was > 100 µM (inactive). The GI50 (TK-10) was > 100 µM (inactive) and the GI50 (HT-29) was > 100 µM (inactive).
In the case of `O=c1c2ncn(COCCCl)c2n(-c2ccccc2)c(=S)n1-c1ccccc1`, the GI50 (A549) is reported as > 100 µM (inactive), the GI50 (SF-295) is reported as > 100 µM (inactive) and the GI50 (MDA-N) is reported as > 100 µM (inactive). The GI50 (NCI-H522) was > 100 µM (inactive), the GI50 (SK-MEL-28) was > 100 µM (inactive) and the GI50 (LOX IMVI) was > 100 µM (inactive). The GI50 (A498) was > 100 µM (inactive), the GI50 (SNB-75) was 4.7 µM (inactive) and the GI50 (SF-539) was > 100 µM (inactive). For the same compound, the GI50 (U-251) was > 100 µM (inactive), the GI50 (MOLT-4) was > 100 µM (inactive) and the GI50 (SK-MEL-5) was > 100 µM (inactive). For the same compound, the GI50 (COLO 205) was > 100 µM (inactive), the GI50 (CCRF-CEM) was > 100 µM (inactive) and the GI50 (UACC-257) was > 100 µM (inactive). The GI50 (UO-31) was 57.3 µM (inactive), the GI50 (Hs-578T) was > 100 µM (inactive) and the GI50 (PC-3) was > 100 µM (inactive). For the same compound, the GI50 (MDA-MB-231) was > 100 µM (inactive), the GI50 (MDA-MB-435) was > 100 µM (inactive) and the GI50 (NCI-H460) was > 100 µM (inactive). For the same compound, the GI50 (IGROV-1) was > 100 µM (inactive), the GI50 (Malme-3M) was > 100 µM (inactive) and the GI50 (SW-620) was > 100 µM (inactive). The GI50 (BT-549) was > 100 µM (inactive), the GI50 (NCI/ADR-RES) was > 100 µM (inactive) and the GI50 (RXF 393) was > 100 µM (inactive). For the same compound, the GI50 (HCT-15) was over 100 µM, the GI50 (SK-MEL-2) was > 100 µM (inactive) and the GI50 (NCI-H226) was > 100 µM (inactive). The GI50 (M14) was > 100 µM (inactive), the GI50 (SK-OV-3) was > 100 µM (inactive) and the GI50 (UACC-62) was > 100 µM (inactive). The GI50 (786-0) was > 100 µM (inactive), the GI50 (SF-268) was > 100 µM (inactive) and the GI50 (EKVX) was > 100 µM (inactive). The GI50 (T47D) was > 100 µM (inactive), the GI50 (HL-60) was > 100 µM (inactive) and the GI50 (RPMI-8226) was 79.8 µM (inactive). For the same compound, the GI50 (OVCAR-3) was > 100 µM (inactive), the GI50 (OVCAR-8) was > 100 µM (inactive) and the GI50 (K562) was > 100 µM (inactive). For the same compound, the GI50 (HOP-92) was > 100 µM (inactive), the GI50 (HCC 2998) was > 100 µM (inactive) and the GI50 (OVCAR-4) was > 100 µM (inactive). The GI50 (OVCAR-5) was > 100 µM (inactive), the GI50 (SR) was > 100 µM (inactive) and the GI50 (DU-145) was > 100 µM (inactive). For the same compound, the GI50 (CAKI-1) was > 100 µM (inactive), the GI50 (SNB-19) was > 100 µM (inactive) and the GI50 (KM12) was > 100 µM (inactive). The GI50 (HCT-116) was > 100 µM (inactive), the GI50 (MCF7) was > 100 µM (inactive) and the GI50 (NCI-H23) was > 100 µM (inactive). For the same compound, the GI50 (ACHN) was > 100 µM (inactive), the GI50 (HOP-62) was > 100 µM (inactive) and the GI50 (SN12C) was > 100 µM (inactive). The GI50 (TK-10) was > 100 µM (inactive) and the GI50 (HT-29) was > 100 µM (inactive).
